Laboratory results published in patent publication US9718762B2, “Insecticidal compounds” (Syngenta Participations AG, priority 2013, dated 2017).

Legend:
Type in all cases: in vivo
[1] = tested on: Spodoptera littoralis; test: Spodoptera littoralis (Egyptian cotton leafworm) cotton leaf disc spray test; settings: foliar, 72 h, 200 ppm spray on cotton leaf discs, L1 larvae, 3 days after treatment, mortality, feeding behavior, growth regulation
From the text: Spodoptera littoralis (Egyptian Cotton Leafworm): Cotton leaf discs were placed on agar in a 24-well microtiter plate and sprayed with test solutions at an application rate of 200 ppm. After drying, the leaf discs were infested with 5 L1 larvae. The samples were checked for mortality, feeding behavior, and growth regulation 3 days after treatment (DAT).

[2] = tested on: Heliothis virescens; test: Heliothis virescens (tobacco budworm) egg test on artificial diet; settings: 96 h, 200 ppm (concentration in well 18 ppm), eggs on artificial diet, 4 days, egg mortality, larval mortality, growth regulation
Experimental: Heliothis virescens (Tobacco Budworm): Eggs (0-24 h old) were placed in 24-well microtiter plate on artificial diet and treated with test solutions at an application rate of 200 ppm (concentration in well 18 ppm) by pipetting. After an incubation period of 4 days, samples were checked for egg mortality, larval mortality, and growth regulation.

[3] = tested on: Plutella xylostella; test: Plutella xylostella (diamond back moth) artificial diet test; settings: 144 h, 200 ppm (concentration in well 18 ppm), L2 larvae, 6 days, larval mortality, growth regulation
Experimental: (§1) Plutella xylostella (Diamond Back Moth): 24-well microtiter plate (MTP) with artificial diet was treated with test solutions at an application rate of 200 ppm (concentration in well 18 ppm) by pipetting. After drying, the MTP's were infested with L2 larvae (7-12 per well). After an incubation period of 6 days, samples were checked for larval mortality and growth regulation.

[4] = tested on: Diabrotica balteata; test: Diabrotica balteata (corn root worm) artificial diet test; settings: 120 h, 200 ppm (concentration in well 18 ppm), L2 larvae, 5 days, larval mortality, growth regulation
Experimental: as §1, with “Diabrotica balteata (Corn Root Worm): A” for “Plutella xylostella (Diamond Back Moth):”, “(6-10” for “(7-12”, “5” for “6”

[5] = tested on: Thrips tabaci; test: Thrips tabaci (onion thrips) sunflower leaf disc spray test; settings: foliar, 168 h, 200 ppm spray on sunflower leaf discs, population of mixed ages, 7 days, mortality
Experimental: (§2) Thrips tabaci (Onion Thrips): Sunflower leaf discs were placed on agar in a 24-well microtiter plate and sprayed with test solutions at an application rate of 200 ppm. After drying, the leaf discs were infested with an […] population of mixed ages. After an incubation period of 7 days, samples were checked for mortality.

[6] = tested on: Tetranychus urticae; test: Tetranychus urticae (two-spotted spider mite) bean leaf disc spray test; settings: foliar, 192 h, 200 ppm spray on bean leaf discs, mite populations of mixed ages, 8 days, egg, larval and adult mortality
From the text: Tetranychus urticae (Two-Spotted Spider Mite): Bean leaf discs on agar in 24-well microtiter plates were sprayed with test solutions at an application rate of 200 ppm. After drying, the leaf discs are infested with mite populations of mixed ages. 8 days later, discs are checked for egg mortality, larval mortality, and adult mortality.

[7] = tested on: Myzus persicae; test: Myzus persicae (green peach aphid) sunflower leaf disc spray test; settings: foliar, 144 h, 200 ppm spray on sunflower leaf discs, aphid population of mixed ages, 6 DAT, mortality
Experimental: as §2, with “Myzus persicae (Green Peach Aphid):” for “Thrips tabaci (Onion Thrips):”, “6 DAT,” for “7 days,”

Measured: pest or weed control at 200 ppm

CCN(C(=O)c1ccc(C#N)cc1)c1cccc(C(=O)Nc2c(Cl)cc(C(F)(C(F)(F)F)C(F)(F)F)cc2Br)c1OC [Compound 1, N-[2-bromo-6-chloro-4-[1,1,1,2,3,3,3-heptafluoro-prop-2-yl]phenyl]-3-[(4-cyanobenzoyl)-ethyl-amino]-2-methoxy-benzamide]
≥ 80%: all assays above

CCN(C(=O)c1ccc(C#N)cc1)c1cccc(C(=O)Nc2c(Cl)cc(C(F)(C(F)(F)F)C(F)(F)F)cc2Cl)c1OC [Compound 2]
≥ 80%: all assays above

CCc1cc(C(F)(C(F)(F)F)C(F)(F)F)cc(C)c1NC(=O)c1cccc(N(CC)C(=O)c2ccc(C#N)cc2)c1OC [Compound 3]
≥ 80%: all assays above

COc1c(C(=O)Nc2c(Cl)cc(C(F)(C(F)(F)F)C(F)(F)F)cc2Br)cccc1N(C)C(=O)c1ccc(C#N)cc1 [Compound 4]
≥ 80%: all assays above

CCN(C(=O)c1ccc(C#N)cc1)c1cccc(C(=O)Nc2c(Br)cc(C(F)(C(F)(F)F)C(F)(F)F)cc2Br)c1OC [Compound 5]
≥ 80%: all assays above

COc1c(C(=O)Nc2c(Br)cc(C(F)(C(F)(F)F)C(F)(F)F)cc2Br)cccc1N(C)C(=O)c1ccc(C#N)cc1 [Compound 6]
≥ 80%: all assays above

COc1c(C(=O)Nc2c(Cl)cc(C(F)(C(F)(F)F)C(F)(F)F)cc2Cl)cccc1N(C)C(=O)c1ccc(C#N)cc1 [Compound 7]
≥ 80%: all assays above

CCc1cc(C(F)(C(F)(F)F)C(F)(F)F)cc(Br)c1NC(=O)c1cccc(N(CC)C(=O)c2ccc(C#N)cc2)c1 [Compound 8]
not listed: [1]
≥ 80%: all other assays above

CCc1cc(C(F)(C(F)(F)F)C(F)(F)F)cc(CC)c1NC(=O)c1cccc(N(CC)C(=O)c2ccc(C#N)cc2)c1OC [Compound 9]
≥ 80%: all assays above

CCc1cc(C(F)(C(F)(F)F)C(F)(F)F)cc(Br)c1NC(=O)c1cccc(N(C)C(=O)c2ccc(C#N)cc2)c1OC [Compound 10]
≥ 80%: all assays above

CCc1cc(C(F)(C(F)(F)F)C(F)(F)F)cc(Cl)c1NC(=O)c1cccc(N(C)C(=O)c2ccc(C#N)cc2)c1OC [Compound 11]
≥ 80%: all assays above

CCc1cc(C(F)(C(F)(F)F)C(F)(F)F)cc(Cl)c1NC(=O)c1cccc(N(CC)C(=O)c2ccc(C#N)cc2)c1OC [Compound 12]
≥ 80%: all assays above
